In article PMC3940698 (PLoS ONE, 2014):
Where two headings read alike, the source gives them in different places.

How the values were obtained:
CYP2E1 [1] = molecular target: T1, CYP2E1 (Homo sapiens, UniProt P05181); assay: CYP2E1 baculosomes, pNP reaction; conditions: for Ki, Cheng-Prusoff method (in words): pNP reactions, CYP2E1 baculosomes, inhibitor 10 nM
[2] = tested on: rat liver microsomes (mixed CYPs); assay: Rat liver microsomes, diclofenac hydroxylation, inhibition; format: biochemical; conditions: for Global Ki, non-linear regression: KM taken as 10 µM
From the text: In some reactions, another method was used.

[3] = tested on: various CYPs tested (CYP2C9, CYP3A4, CYP2D6, CYP2E1); assay: Ki of BzBr for the various CYPs tested (baculosomes, Diclof or pNP); conditions: equivalent substrate-BzBr concentrations
CYP2E1 [4] = molecular target: T1, CYP2E1
CYP2C9 [5] = molecular target: T2, CYP2C9 (Homo sapiens, UniProt P11712); conditions: ref [4]-[6]; cited from earlier work
T2 construct: purchased Life Technologies (and Panvera), Invitrogen
T2 sequence (P11712 whole entry): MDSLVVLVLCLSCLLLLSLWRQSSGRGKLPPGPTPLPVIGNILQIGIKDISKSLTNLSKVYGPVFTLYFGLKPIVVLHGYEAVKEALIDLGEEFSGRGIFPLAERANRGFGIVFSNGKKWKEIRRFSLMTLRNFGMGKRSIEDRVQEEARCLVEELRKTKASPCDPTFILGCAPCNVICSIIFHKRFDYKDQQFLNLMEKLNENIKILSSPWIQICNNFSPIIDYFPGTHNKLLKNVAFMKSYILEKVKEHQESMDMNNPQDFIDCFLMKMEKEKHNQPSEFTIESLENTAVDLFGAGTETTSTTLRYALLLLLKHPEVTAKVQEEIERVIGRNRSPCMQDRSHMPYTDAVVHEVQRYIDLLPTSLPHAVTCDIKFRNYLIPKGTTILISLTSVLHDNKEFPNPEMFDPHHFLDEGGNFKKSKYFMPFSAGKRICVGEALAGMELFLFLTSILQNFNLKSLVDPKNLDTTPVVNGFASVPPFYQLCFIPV

CYP2C9 [6] = molecular target: T2, CYP2C9; assay: CYP2C9 baculosomes, diclofenac hydroxylation, inhibition; format: biochemical; conditions: for Ki / Localized Ki, Chance equation / Localized Ki, Cheng-Prusoff equation / Global Ki, linear regression / Global Ki, non-linear regression: CYP2C9+Diclof;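 as to all read-outs here: reactions run at 27 °C in 100 mM potassium phosphate, pH 7.4, in a 250 µl volume, with hydroxylated product quantified from HPLC peak areas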
CYP3A4 = molecular target: T3, CYP3A4 (Homo sapiens, UniProt P08684); assay: CYP3A4 baculosomes, diclofenac or pNP product formation; format: biochemical; conditions: CYP3A4 baculosomes 20 nM, inhibitor equivalent amount, 30 minutes
T3 construct: host or cells: baculosomes
T3 sequence (P08684 2-503 limits assumed): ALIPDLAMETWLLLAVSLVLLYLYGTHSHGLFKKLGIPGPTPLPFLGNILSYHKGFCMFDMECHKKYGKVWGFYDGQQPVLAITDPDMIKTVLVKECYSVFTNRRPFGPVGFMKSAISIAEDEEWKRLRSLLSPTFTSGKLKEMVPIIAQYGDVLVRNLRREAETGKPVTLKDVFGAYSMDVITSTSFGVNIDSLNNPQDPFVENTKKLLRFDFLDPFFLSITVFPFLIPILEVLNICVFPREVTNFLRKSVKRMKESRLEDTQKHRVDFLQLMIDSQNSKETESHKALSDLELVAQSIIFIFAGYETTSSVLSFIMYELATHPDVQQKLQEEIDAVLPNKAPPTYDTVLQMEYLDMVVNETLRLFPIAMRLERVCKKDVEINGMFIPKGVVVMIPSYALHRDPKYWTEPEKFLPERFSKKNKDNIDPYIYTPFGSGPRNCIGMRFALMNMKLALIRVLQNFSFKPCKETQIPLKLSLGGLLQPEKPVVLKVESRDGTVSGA

CYP2D6 = molecular target: T4, CYP2D6 (Homo sapiens, UniProt P10635); assay: CYP2D6 baculosomes, diclofenac or pNP product formation; format: biochemical; conditions: CYP2D6 baculosomes 20 nM, inhibitor equivalent amount, 30 minutes
T4 construct: host or cells: baculosomes
T4 sequence (P10635 whole entry): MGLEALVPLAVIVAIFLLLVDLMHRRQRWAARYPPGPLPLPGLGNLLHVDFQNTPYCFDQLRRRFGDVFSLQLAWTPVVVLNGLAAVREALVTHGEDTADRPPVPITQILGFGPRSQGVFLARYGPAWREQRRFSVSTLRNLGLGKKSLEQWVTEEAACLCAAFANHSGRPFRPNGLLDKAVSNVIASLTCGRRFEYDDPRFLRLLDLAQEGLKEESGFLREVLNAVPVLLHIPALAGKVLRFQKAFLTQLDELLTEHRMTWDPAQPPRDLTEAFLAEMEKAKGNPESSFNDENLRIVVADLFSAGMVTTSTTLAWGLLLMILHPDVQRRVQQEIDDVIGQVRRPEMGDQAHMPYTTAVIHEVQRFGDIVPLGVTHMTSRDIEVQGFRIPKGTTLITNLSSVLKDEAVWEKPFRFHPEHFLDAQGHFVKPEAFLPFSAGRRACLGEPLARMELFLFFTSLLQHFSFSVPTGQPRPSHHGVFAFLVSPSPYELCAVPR

[7] = Microsomes+Diclof, 0.5 µM CYP, 200 µM diclofenac, 400 µM NADPH
[8] = [I] 0.01 µM, read-out: Localized Ki, Chance equation
[9] = [I] 0.01 µM, read-out: Localized Ki, Cheng-Prusoff equation
[10] = [I] 1 µM, read-out: Localized Ki, Chance equation
[11] = [I] 1 µM, read-out: Localized Ki, Cheng-Prusoff equation
[12] = [I] 100 µM, read-out: Localized Ki, Cheng-Prusoff equation
[13] = 10 nM CYP, 100 µM diclofenac, 200 µM NADPH
[14] = KM taken as 10 µM, 10 nM CYP, 100 µM diclofenac, 200 µM NADPH

T1 sequence (P05181 whole entry): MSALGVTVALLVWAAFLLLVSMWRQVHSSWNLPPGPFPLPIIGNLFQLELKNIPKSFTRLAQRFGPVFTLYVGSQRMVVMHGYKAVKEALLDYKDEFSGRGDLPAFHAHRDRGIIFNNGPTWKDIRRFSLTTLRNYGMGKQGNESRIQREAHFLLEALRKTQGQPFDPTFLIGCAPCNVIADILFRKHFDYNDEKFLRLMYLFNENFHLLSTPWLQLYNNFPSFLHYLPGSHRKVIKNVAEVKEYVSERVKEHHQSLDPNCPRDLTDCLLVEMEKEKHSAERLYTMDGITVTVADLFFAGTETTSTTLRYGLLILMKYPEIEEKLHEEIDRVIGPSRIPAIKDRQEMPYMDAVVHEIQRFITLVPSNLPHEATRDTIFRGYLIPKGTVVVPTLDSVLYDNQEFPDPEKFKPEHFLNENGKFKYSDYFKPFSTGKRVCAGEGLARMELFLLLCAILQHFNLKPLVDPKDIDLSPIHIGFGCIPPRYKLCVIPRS

CCc1oc2ccccc2c1C(=O)c1cc(Br)c(O)c(Br)c1 [BzBr, benzbromarone]
Ki, Cheng-Prusoff method (in words) (CYP2E1 [1]): low nM ranges
Global Ki, linear regression [2, 7]: -
Global Ki, non-linear regression [2, 7]: -
Ki derived from calculations (in words) [3]: Submicromolar

CCc1oc2ccccc2c1C(=O)c1cc(I)c(O)c(I)c1 [BzIr, benziodarone]
Global Ki, linear regression [2, 7]: -
Global Ki, non-linear regression [2, 7]: -
Ki, Cheng-Prusoff method (in words) (CYP2E1 [4]): low nM ranges
Ki (CYP2C9 [5]): ≤ 1 nM
Ki (CYP2C9 [6]; 10 nM CYP, 100 µM diclofenac, 200 µM NADPH, read-out: Global Ki, linear regression): 30900 nM
Ki (CYP2C9 [6]; KM taken as 10 µM, 10 nM CYP, 100 µM diclofenac, 200 µM NADPH, read-out: Global Ki, non-linear regression): 2.8 nM
Ki (CYP2C9 [6]; [8]): 243 nM
Ki (CYP2C9 [6]; [9]): 2.6 nM
Ki (CYP2C9 [6]; [10]): 995 nM
Ki (CYP2C9 [6]; [11]): 9.1 nM
Ki (CYP2C9 [6]; [I] 100 µM, read-out: Localized Ki, Chance equation): 190000 nM
Ki (CYP2C9 [6]; [12]): 650 nM

O=C(O)c1cc(Br)c(O)c(Br)c1 [DBHB]
Ki, Cheng-Prusoff method (in words) (CYP2E1 [1]): low nM ranges
Ki (CYP2C9 [6]; [8]): 6.4 nM
Ki (CYP2C9 [6]; [10]): 97700 nM
Ki (CYP2C9 [6]; [11]): 89.9 nM
Ki (CYP2C9 [6]; [12]): 8680 nM
Ki via non-linear regression (in words) (CYP2C9 [6]; CYP2C9 baculosomes): sub-nanomolar
Ki via linear regression analysis (in words) (CYP2C9 [6]; CYP2C9 baculosomes, same experimental data): supra-millimolar

COc1cc(Br)c(O)c(Br)c1 [DBMP]
Ki, Cheng-Prusoff method (in words) (CYP2E1 [1]): low nM ranges
Localized Ki, Chance equation (CYP2C9 [6]; [I] 0.01 µM): -
Localized Ki, Cheng-Prusoff equation (CYP2C9 [6]; [I] 0.01 µM): -
Ki (CYP2C9 [6]; [11]): 306 nM
Ki (CYP2C9 [6]; [12]): 95400 nM

Oc1c(Br)cccc1Br [DBP]
Ki, Cheng-Prusoff method (in words) (CYP2E1 [1]): low nM ranges
Inhibition at 100 µM ([2]; mixed microsomes, 100 µM): failed to give any inhibition
Ki (CYP2C9 [6]; [11]): 2610 nM
Localized Ki, Chance equation (CYP2C9 [6]; [I] 100 µM): -
Localized Ki, Cheng-Prusoff equation (CYP2C9 [6]; [I] 100 µM): -
Ki at 10 nM inhibitor (in words) (CYP2C9 [6]; CYP2C9 baculosome system, 10 nM): nanomolar
Ki at 1 µM inhibitor (in words) (CYP2C9 [6]; CYP2C9 baculosome system, 1 µM): micromolar
Inhibition at 100 µM (CYP2C9 [6]; CYP2C9 baculosome system, 100 µM): failed to give any inhibition

NC(Cc1cc(I)c(O)c(I)c1)C(=O)O (centres unmarked) [DIT]
Global Ki, linear regression (CYP2C9 [6]; [13]): -
Global Ki, non-linear regression (CYP2C9 [6]; [14]): -
Ki (CYP2C9 [6]; [8]): 5.5 nM
Ki (CYP2C9 [6]; [9]): 0.7 nM
Localized Ki, Chance equation (CYP2C9 [6]; [I] 1 µM): -
Localized Ki, Cheng-Prusoff equation (CYP2C9 [6]; [I] 1 µM): -
Ki (CYP2C9 [6]; [12]): 42600 nM

CCc1oc2ccccc2c1C(=O)c1cc(Br)c(OC)c(Br)c1 [MeOBzBr]
Ki ([2]; read-out: Ki at 100 µM inhibitor, microsome setups, 100 µM inhibitor): 3700 nM

CCc1oc2ccccc2c1C(=O)c1cc(I)c(OC)c(I)c1 [MeOBzIr]
Global Ki, linear regression (CYP2C9 [6]; [13]): -
Global Ki, non-linear regression (CYP2C9 [6]; [14]): -

CCc1oc2ccccc2c1C(=O)c1ccc(OC)cc1 [MeOBzr]
Ki ([2]; Microsomes+Diclof, 0.5 µM CYP, 200 µM diclofenac, 400 µM NADPH, read-out: Global Ki, linear regression): 242 nM
Global Ki, linear regression (CYP2C9 [6]; [13]): -
Global Ki, non-linear regression (CYP2C9 [6]; [14]): -

Benzothiadiazole
Relative percentage of hydroxylated product formed vs positive control (CYP3A4; 80 µM Diclof): 17%
Relative percentage of hydroxylated product formed vs positive control (CYP3A4; 80 µM pNP): ∼15%
Relative percentage of hydroxylated product formed vs positive control (CYP2E1 [1]; CYP2E1 baculosomes 20 nM, 80 µM pNP, inhibitor equivalent amount, 30 minutes): 15%
Relative percentage of hydroxylated product formed vs positive control (CYP2D6; 80 µM Diclof): 0.3%
Relative percentage of hydroxylated product formed vs positive control (CYP2D6; 80 µM pNP): ∼15%
Relative percentage of hydroxylated product formed vs positive control (CYP2C9 [6]; CYP2C9 baculosomes 20 nM, 80 µM Diclof, inhibitor equivalent amount, 250 µM NADPH, 30 minutes): 90.1%

vitamin E [Vit. E]
Ki (in words) (CYP2C9 [6]; baculosome reaction setup): ∼nM
